Assay results published in patent publication US11332438B2, “Creatine prodrugs, compositions and methods of use thereof” (Ultragenyx Pharmaceutical Inc., priority 2017, dated 2022).

What was measured:
[1] = Plasma stability, human plasma; type: in vitro ADME; conditions: Table 2A, 37 °C, read-out: Plasma Stability Human t1/2
Summary of the method: (§1)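 Half-life (min) from LC-MS/MS of acetonitrile-quenched samples taken at t=0, 2, 5, 15, 30 min. Compound dosed at 1 µM final into plasma pre-warmed to 37 °C, pH set to 7.4 where required; incubations at 37 °C.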

[2] = Plasma stability, mouse plasma; type: in vitro ADME; conditions: Table 2A, 37 °C, read-out: Plasma Stability Mouse t1/2
Summary of the method: as §1

[3] = Liver microsome stability, human; type: in vitro ADME; conditions: liver microsomes, pH 7.4, Table 2A, read-out: Microsome Stability Human t1/2
Summary of the method: (§2)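 Remaining compound measured by LC/MS after acetonitrile/internal-standard quench at 0–60 min time points (0, 5, 10, 20, 30, 60). Incubations used mouse or human liver microsomes in pH 7.4 potassium phosphate/EDTA buffer with NADPH; a 60-min sample without NADPH served as control.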

[4] = Liver microsome stability, mouse; type: in vitro ADME; conditions: liver microsomes, pH 7.4, Table 2A, read-out: Microsome Stability Mouse t1/2
Summary of the method: as §2

[5] = Chemical stability in phosphate buffered saline (PBS); type: physicochemical; conditions: 50 μM prodrug
Summary of the method: (§3)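 Incubations used 50 μM compound at 37 °C in phosphate buffered saline, fasted simulated intestinal fluid without pancreatin, or fasted simulated gastric fluid without pepsin.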

[6] = Chemical stability in simulated gastric fluid (SGF) without pepsin; type: physicochemical; conditions: 50 μM prodrug
Summary of the method: as §3

| half-life [1] [min] | half-life [2] [min] | half-life at 10 μM [3] [min] | half-life at 10 μM [4] [min] | Chemical Stability PBS % T0 at 2 hours at 37 °C. ([5]; Table 2A) [%] | Chemical Stability PBS % T0 at 2 hours at 37 °C. ([5]; Table 2B) [%] | Chemical Stability SGF, no enzyme % T0 at 2 hours at 37 °C. ([6]; Table 2A) [%] | Chemical Stability SGF, no enzyme % T0 at 2 hours at 37 °C. ([6]; Table 2B) [%] | SMILES |
| --- | --- | --- | --- | --- | --- | --- | --- | --- |
| < 5 | < 5 | < 5 | < 5 | 0 | 0 | 117 | 95 | Cl.[2H]C([2H])([2H])N(CC(=O)OCC)C(=N)NC(=O)CCCCCCCCCC [Compound 8] |
| < 5 | < 5 | < 5 | < 5 | 42 |  | 76 |  | Cl.[2H]C([2H])([2H])N(CC(=O)OCCCCCCC)C(=N)NC(=O)CCCCCCCCCCCC [Compound 11] |
| < 5 | < 5 | 6 | 7 | 61 |  | 81 |  | Cl.[H]/N=C(/NC(=O)CCCCCCC/C=C\CCCCCCCC)N(CC(=O)OCCCCCCC)C([2H])([2H])[2H] [Compound 2, (Z)-heptyl 2-(1-trideuteriomethyl-3-oleoylguanidino)acetate Hydrochloride] |
